Entries after “also recorded” stand apart in the source; their conditions may differ.
Legend:
TD47 = assay: MTT cell viability assay; assay type: cell-based; conditions: TD47, different doses, 4 days
Description: (§1) 1.1. ZPP and Y29794 induces cytotoxicity to cancer cells by MTT analysis of cell viability. Cells were placed in 96-well plates (3×10^3 cells/well) in octuplicate. The cells were then treated with vehicle or different doses of ZPP for 4 days. Cells were then loaded with 1.2 mM MTT (4,5-Dimethylthiazol-2-vn-2,5-diphenvltetrazolium bromide, a yellow tetrazole) in phenol red-free medium for 4 hours. The cells were then lysed in 10% SDS/0.01M HCL. MTT absorbance (570 nm spectrum) was measured by a microplate reader. The relative absorbance is normalized to the control (vehicle-treated) to indicate relative cell viability. ZPP was purchased from Biomol (Plymouth Meeting, Pa., USA). MTT was purchased from Sigma-Aldrich. Panc-1 and Capan-1 pancreatic cancer cell line, MCF7 and T47D breast cancer cell lines, A549 and HI 703 lung cancer Cell lines were purchased from American Type Culture Collection (ATCC, USA) preparation of pancreatic cancer cell line PK-9 have been disclosed, e.g., Kobari M et al, (1986) Tohoku J Exp Med. 150: 231-248; Etoh T et al, (2003) Clin Cancer Res 9; 1218; Arafat H. et al, (2011) Surgery 150 (2): 306-315. Cells were grown in Dulbecco's Modified. Eagle's (DMEM) medium (Invitrogen, Carlsbad, Calif.) containing 10% fetal bovine serum (FBS) (Hyclone, purchased from Thermo Fisher Scientific, Inc). […] In similar experiments, the cells were treated with different doses of Y29794 for 4 days and analyzed for MTT absorbance. Y29794 oxalate was purchased from Tocris Biosciences (Bristol, UK).

MDAMB231 = assay: MTT cell viability assay; assay type: cell-based; conditions: MDAMB231, different doses, 4 days
Description: as §1

PK-9 = assay: MTT cell viability assay; assay type: cell-based; conditions: PK-9, different doses, 4 days
Description: as §1

H1703 = assay: MTT cell viability assay; assay type: cell-based; conditions: H1703, different doses, 4 days
Description: as §1

MCF7 = assay: MTT cell viability assay; assay type: cell-based; conditions: MCF7, different doses, 4 days
Description: as §1

AsPC-1 = assay: MTT cell viability assay; assay type: cell-based; conditions: AsPC-1, different doses, 4 days
Description: as §1

A549 = assay: MTT cell viability assay; assay type: cell-based; conditions: A549, different doses, 4 days
Description: as §1

Capan-1 = assay: MTT cell viability assay; assay type: cell-based; conditions: Capan-1, different doses, 4 days
Description: as §1

PI3K = PI3K kinase assay in anti-p85 immunoprecipitates; assay type: cell-based; conditions: Panc-1, 24 hours
Description: PI3K kinase assay kit (Calbiochem, Bilerica, Mass., USA) was used to measure the IRS-1-associated or p85-associated PI3K kinase activity in cells. The indicated cells were treated with different conditions for 24 hours. The cells were rinsed three times with pre-cooled PBS, lysed in 500 μl of lysis buffer (150 mmol/L Nacl, 1% Triton-x-100, 50 mmol/1 Tris (pH8.0, 1 mmol/L PMSF, 1 μg/L aprotinin, 1 μg/Lleupeptin, 1 μg/L peptain). Cell lysates (500 μg, in triplicate) of were used for anti-IRS-1 or anti-p85 immunoprecipitation. The immunoprecipitates were resuspended in 200 μl assay buffer and mixed with the fluorescence-labeled PI3K substrate BODIPY-TMR-phosphatidylinositol (100 μM) and ATP (37° C.) for 1 hour. The fluorescence intensity was measured with a fluorometer (excitation wavelength of 540 nm, emission wavelength […]). The difference between fluorescence intensity between control immunoprecipitates (no lysates) and lysate immunoprecipitates was used to indicate PI3K kinase activity. IR-1 anti-rabbit antibody and rabbit anti-PI3K p85 antibody were purchased from Millipore Corporation (Billerica, Mass., USA). Panc-1 anti-p85 immunoprecipitates were used for PI3K kinase assay (FIG. 12) and immunoblot analysis (FIG. 12). Rapamycin treatment in control cells increased PI3K kinase activity (P<0.01).

Panc-1 = assay: Colony formation assay (clonogenic assay); assay type: cell-based
Description: 1.2. Colony formation assay (clonogenic assay) was used to analyze the effect of ZPP or Y29794 on cancer cell survival. 10^3 Panc-1 cells were plated in 100 mm petri dish in triplicate fed with 10 ml of DMEM containing 10% FBS. The cells were then treated by ZPP for 7 days and cultured for additional three weeks. Cells were then rinsed three times with PBS, fixed with 100% ethanol for 15 min, and stained with 2% crystal violet ethanol solution. The stained colonies were counted. All the results are statistically analyzed by one way ANOVA and two tailed t-test.

Panc-1 tumor = assay: Xenotransplanted Panc-1 pancreatic tumor growth in SCID mice; assay type: in vivo, SCID mice (BALB/C)
Description: 4-6 week-old male SCID mice (BALB/C) were purchased from Charles River laboratories (Wilmington, Mass., USA). Pane-1 cells at about 80% confluence were trypsinized with 0.25% trypsin and 0.02% EDTA. The cell suspension was centrifuged after addition of 10% FBS. 10^6 cells were resuspended in 100 μl PBS buffer containing 10% Matrigel, and injected with a 1-cc syringe with a 27-30 sized needle into the right flank of nude mice under anesthesia. After tumor formation (mean volume 50-60 mm^3) the mice were randomly divided into four groups (6 mice per group): control group, rapamycin treatment group, Y29794 treatment group, and Y29794 plus rapamycin treatment group. Rapamycin and Y29794 were dissolved in Cremophor formulation (20% Cremophor EL, 30% propylene glycol, 50% ethanol). Rapamycin (2 mg/kg body weight) was given by intraperitoneal injection one dose per week. Y29794 (20 mg/kg body weight) was administered by gavage five doses a week. Weekly measurements of tumor size (length, width and depth) and calculation of the tumor volume (½ larger diameter×(smaller diameter)) were carried until the control tumors reached 1000 mm^3.

IRS-1 = assay: Immunoblot analysis of IRS-1 (protein, phosphorylation, half-life, p85 coimmunoprecipitation); assay type: cell-based

CC(C)c1ccc(C(=O)c2cccs2)c(SCCCCCCCCN(C)C)n1 [Y29794, [2-[8-(dimethylamino)octylsulfanyl]-6-propan-2-ylpyridin-3-yl]-thiophen-2-ylmethanone]
MTT absorbance (relative cell viability) (TD47): dose-dependent cytotoxicity | MTT absorbance (relative cell viability) (MDAMB231): dose-dependent cytotoxicity | MTT absorbance (relative cell viability) (PK-9): dose-dependent cytotoxicity | MTT absorbance (relative cell viability) (H1703): dose-dependent cytotoxicity | MTT absorbance (relative cell viability) (MCF7): dose-dependent cytotoxicity | MTT absorbance (relative cell viability) (AsPC-1): dose-dependent cytotoxicity | MTT absorbance (relative cell viability) (A549): dose-dependent cytotoxicity | MTT absorbance (relative cell viability) (Capan-1): dose-dependent cytotoxicity | PI3K kinase activity (p85-associated) (PI3K; ZPP 200 μM, Y29794 0.5 μM or rapamycin alone, vs vehicle): reduced; also recorded: significantly lower | rapamycin-induced increase in PI3K kinase activity (p85-associated) (PI3K; rapamycin with ZPP 200 μM or Y29794 0.5 μM): blocks; also recorded: inhibited | cell survival (colony formation) (Panc-1; Panc-1, Y29794 25 nM in combination with rapamycin): significantly (P<0.01) decreased | cell colonies formed at 21 days, combination (Panc-1; Panc-1, various concentration of rapamycin with 25 nM Y29794, 7 days (FIG. 16C legend)): synergistic reduction | tumor growth (tumor volume), combination (Panc-1 tumor; Y29794 20 mg/kg by gavage five doses a week plus rapamycin 2 mg/kg intraperitoneal one dose per week): synergistic effect; also recorded: inhibited tumor growth (P<0.01) more than Y29794 alone | tumor growth (tumor volume) (Panc-1 tumor; Y29794 alone, 20 mg/kg by gavage five doses a week, vs control group, 20 mg/kg): significantly reduces; also recorded: significantly inhibited | IRS-1 protein (IRS-1; Capan-1, Y29794 1 μM (FIG. 19A)): reduces | IRS-1 protein (IRS-1; PK-9, Y29794 1 μM (FIG. 19A)): reduces

Reference: patent publication US9750728B2, “Method and pharmaceutical composition for inhibiting PI3K/AKT/mTOR signaling pathway” (TARGETED THERAPEUTICS, LLC, priority 2012, dated 2017)
